Assay results published in patent US9750747B2, “Treatments involving eslicarbazepine acetate or eslicarbazepine” (BAIL-PORTELA & CA, S.A., priority 2011, dated 2017).

Legend:
[1] = test system: primary generalised tonic clonic seizure (PGTCS); assay: randomised double-blind placebo controlled trial of adjunctive treatment in PGTCS; format: in vivo; settings: human patients, adjunct or monotherapy
Source text: Clinical trial study: A randomised double-blind, placebo controlled, trial assesses the efficacy and safety of adjunctive eslicarbazepine acetate in primary generalised tonic clonic seizure (PGTCS) in human patients in accordance with established methods. Methods: Men and women are selected for trial according to standard inclusion criteria in the field including the following: • Subject is male or female and aged 6-65 years. • Subject has ≧3 PGTCS over the two months before screening and during the eight weeks Baseline Period with at least one seizure in each one month period. […] Trial endpoints assessed clinical criteria are as follows: • time to withdrawal after randomisation; • time to first, second, or other seizure after randomisation (time to first seizure after randomisation allows determination of the proportion of patients at different time points who remain seizure free); • time to achieving remission (e.g. at six months, one year, or two years); • change in seizure severity; • change in seizure frequency; • percentage response to treatment (response defined as a 50% or greater reduction in seizure frequency); • change in seizure-free interval; • change in seizure duration; • change in seizure pattern; • change in functional capacity; and • patient-related quality of life.

absence seizure = assay: mouse absence seizure models (γ-butyrolactone induced, SSADH null, stargazer, C3H/He); format: in vivo; settings: mice models (a)-(d)

CC(=O)O[C@H]1Cc2ccccc2N(C(N)=O)c2ccccc21 [eslicarbazepine acetate, (S)-10-acetoxy-10,11-dihydro-5H-dibenz[b,f]azepine-5-carboxamide]
clinical effects in patients suffering from or susceptible to PGTCS [1]: improved clinical effects | controlling seizures in mouse absence seizure models (absence seizure): effective in controlling seizures
